As a reminder, the Ki is a measure of affinity in units of concentration, obtained from inhibition or displacement. A high value points to weaker binding.

The values below come from publication PMC10855164, “Ligand-Based Design of Selective Peptidomimetic uPA and TMPRSS2 Inhibitors with Arg Bioisosteres” (International Journal of Molecular Sciences, 2024).

One assay concerns the target T1, matriptase (Homo sapiens, UniProt Q9Y5Y6).
T1 construct: catalytic domain of matriptase (uniport: Q9Y5Y6 aa 596–855); hexa-histidine (N); made in house; host or cells: Escherichia coli BL21 Gold (DE3)
T1 sequence (Q9Y5Y6 596-855): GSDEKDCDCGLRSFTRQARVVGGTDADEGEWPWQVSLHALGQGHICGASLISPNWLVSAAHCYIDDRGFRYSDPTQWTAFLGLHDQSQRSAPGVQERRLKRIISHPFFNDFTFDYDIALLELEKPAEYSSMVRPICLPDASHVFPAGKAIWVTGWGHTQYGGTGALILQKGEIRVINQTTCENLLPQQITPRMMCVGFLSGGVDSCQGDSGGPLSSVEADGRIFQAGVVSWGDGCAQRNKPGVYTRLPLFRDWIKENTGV
Kind of assay: fluorometric enzyme inhibition assay, matriptase (Boc-Leu-Arg-Arg-AMC). It counts as biochemical. As to conditions: for Ki: from IC50 by Cheng-Prusoff, n.a. = not active, <80% inhibition at 20 µM. On the procedure:
(§1) The inhibitory activity of the synthesized compounds towards the respective main- and off-target proteases was measured via fluorometric and colorimetric assays. Thus, fluorogenic AMC- or colorimetric pNA-based substrates with a peptide sequence suitable for the tested protease were utilized (see Supplementary Figure S2). At first, the compounds were screened against […] proteases (uPA, TMPRSS2, matriptase, tPA, thrombin, factor Xa) at 20 µM, and a cut-off value of 80% inhibition at this concentration was set, for the differentiation between nonactive (n.a.) and active inhibitors. Due to the reversible inhibition mechanism of the ketobenzothiazole derivates, the IC50 values were determined with Graphpad Prism 9, and afterwards converted to the corresponding Ki values for an adequate comparison between the inhibitory activities of the compounds toward all tested proteases. The Ki values were calculated using the Cheng–Prusoff equation [43].
(§2) Fluorometric inhibition assays
The inhibitory activities of the compounds against the proteases were determined by enzyme inhibition assays with fluorogenic or colorimetry-based substrates. The fluorescence, caused by cleaved AMC from the fluorogenic substrates (uPA, matriptase, TMPRSS2, thrombin), was measured in white flat-bottom 96-well plates from Greiner Bio-One using a Tecan Infinite F200 Pro plate reader. The absorption, caused by cleaved pNA from colorimetric substrates (factor Xa and tPA), was measured in transparent flat-bottom 96-well plates from Greiner Bio-One using a Tecan Spark 10M plate reader. All measurements with the main-target proteases (uPA and TMRPSS2) were performed as triplicates and with the off-target proteases (matriptase, factor Xa, tPA, thrombin) as duplicates. The substrates and the compounds were prepared as stock solutions in DMSO. Each well contained a total volume of 200 µL, consisting of 185 µL buffer, 5 µL inhibitor in DMSO or pure DMSO as negative control, 5 µL substrate in DMSO and 5 µL enzyme solution in buffer. Dilution series were prepared for the determination of the inhibition constants. The fluorescence signal and absorbance were measured every 30 s for 10 min at 25 or 37 °C with the corresponding excitation/emission (λex = 380 nm / λem = 460 nm) and absorbance (λabs = 405 nm) wavelengths, depending on the targeted protease. IC50 values for the reversible inhibitors were calculated with Graphpad Prism 9 by fitting the remaining enzymatic activity to the four parameter IC50 equation with Y [%] as the residual enzyme activity , Ymax as the maximum value of the dose response curve at inhibitor concentrations [I] = 0 µM, Ymin as the minimum value at high inhibitor concentrations and s as the hill coefficient.[1] The fluorescence progress curves and sigmoidal dose-response curve for inhibition of uPa by compound 38 is shown exemplary in Figure S2. […]
(§3) Due to the dependence of the IC50 value on the substrate affinity and concentration, the Ki values were calculated with the Cheng-Prusoff equation, using the final substrate concentration [S] and the Michaelis-Menten constant KM, (2) for appropriate comparison of the inhibitory activities to the other enzymes and inhibitors.[1]
KM values were determined by fitting to the Michaelis-Menten equation using Graphpad Prism 9 with v [ΔF/min] as the substrate hydrolysis rate, vmax as the maximum slope of the dose-response curve, and the substrate [S] concentration.[1] The different substrates were serially diluted in DMSO. The measurement was done in analogy to the determination of the inhibitory activity, but with 5 µL pure DMSO instead of inhibitor solution. […]
The following buffers and substrates were used for the respective assays: uPA (50 mM Tris HCl pH = 7.9, 150 mM […]
TMPRSS2 (25 mM Tris HCl pH = 8.0, 150 mM NaCl, 5 mM CaCl2, 0.001% TX-100, 100 µM Boc-Gln-Ala-Arg-AMC (KM: 68.63 ± 6.64 µM), 25 °C, 3 nM TMPRSS2)[3]; matriptase (50 mM Tris HCl pH = 8.0, 150 mM NaCl, 5 mM CaCl2, […]

For another assay, the target named is T2, uPA (Homo sapiens, UniProt P00749).
T2 construct: purchased Sigma Aldrich
Kind of assay: fluorometric enzyme inhibition assay, uPA (Z-Gly-Gly-Arg-AMC). As to conditions: for Ki: from IC50 by Cheng-Prusoff, n.a. = not active, <80% inhibition at 20 µM. In kind it is biochemical. On the procedure: as §1, §2
The inhibitory activities of the compounds against the proteases were determined by enzyme inhibition assays with fluorogenic or colorimetry-based substrates. The fluorescence, caused by cleaved AMC from the fluorogenic substrates (uPA, matriptase, TMPRSS2, thrombin), was measured in white flat-bottom 96-well plates from Greiner Bio-One using a Tecan Infinite F200 Pro plate reader. The absorption, caused by cleaved pNA from colorimetric substrates (factor Xa and tPA), was measured in transparent flat-bottom 96-well plates from Greiner Bio-One using a Tecan Spark 10M plate reader. All measurements with the main-target proteases (uPA and TMRPSS2) were performed as triplicates and with the off-target proteases (matriptase, factor Xa, tPA, thrombin) as duplicates. The substrates and the compounds were prepared as stock solutions in DMSO. Each well contained a total volume of 200 µL, consisting of 185 µL buffer, 5 µL inhibitor in DMSO or pure DMSO as negative control, 5 µL substrate in DMSO and 5 µL enzyme solution in buffer. Dilution series were prepared for the determination of the inhibition constants. The fluorescence signal and absorbance were measured every 30 s for 10 min at 25 or 37 °C with the corresponding excitation/emission (λex = 380 nm / λem = 460 nm) and absorbance (λabs = 405 nm) wavelengths, depending on the targeted protease. IC50 values for the reversible inhibitors were calculated with Graphpad Prism 9 by fitting the remaining enzymatic activity to the four parameter IC50 equation with Y [%] as the residual enzyme activity , Ymax as the maximum value of the dose response curve at inhibitor concentrations [I] = 0 µM, Ymin as the minimum value at high inhibitor concentrations and s as the hill coefficient.[1] The fluorescence progress curves and sigmoidal dose-response curve for inhibition of uPa by compound 38 is shown exemplary in Figure S2.
Figure S2: (left) Fluorescence progress curves for inhibition of uPa by cpd. 38. (right) Plot showing the respective IC50 value […]
as §3
KM values were determined by fitting to the Michaelis-Menten equation using Graphpad Prism 9 with v [ΔF/min] as the substrate hydrolysis rate, vmax as the maximum slope of the dose-response curve, and the substrate [S] concentration.[1] The different substrates were serially diluted in DMSO. The measurement was done in analogy to the determination of the inhibitory activity, but with 5 µL pure DMSO instead of inhibitor solution. The fluorescence progress curves and Michaelis-Menten curve of the specific substrate of uPA is shown exemplarily […]
Figure S3: (left) Fluorescence progress curves of cleavage of Z-Gly-Gly-Arg-AMC by uPA. (right) Michaelis-Menten curve […]

Consider `CC(=O)N[C@@H](Cc1ccccc1)C(=O)N[C@@H](Cc1ccc(NC(=N)N)cc1)C(=O)c1nc2ccccc2s1` [Compound 33], for which the Ki on matriptase worked out at 1440 ± 90 nM; on uPA, 5260 ± 922 nM. Also, at matriptase (quotient Ki matriptase / Ki TMPRSS2), the “Selectivity index [SI] Matriptase” value was determined as 289. Also, the “Selectivity index [SI] uPA” value on uPA (quotient Ki uPA / Ki TMPRSS2) is on record as 1052.

For the molecule `CC(=O)NCC(=O)NC(C(=O)NC(C)C(=O)NC(CC1CCC(NC(=N)N)CC1)C(=O)c1nc2ccccc2s1)C(C)O` (stereo not shown) [Compound 38], the results for the Ki on matriptase and on uPA were 626 ± 74 nM and 39 ± 5 nM, respectively. Further, the “Selectivity index [SI] Matriptase” value on matriptase (quotient Ki matriptase / Ki uPA) turned out to be 16.
